Experiments:
A549-ACE2 [1] = experiment: drug-induced phospholipidosis relative to tamoxifen; higher = more phospholipidosis
[2] = test system: A549-ACE2 infected with SARS-CoV-2; experiment: cell count relative to DMSO; higher = less toxic; conditions: 24 h
Caco-2 [3] = experiment: cell viability relative to DMSO; higher = less toxic; conditions: 72 h
HepG2 [4] = experiment: as above; conditions: 72 h
Calu-3 [5] = experiment: as above; conditions: 72 h
U2OS [6] = experiment: as above; conditions: 72 h
Vero E6 [7] = experiment: as above; conditions: 72 h
Caco-2 [8] = experiment: relative viability EC50 (midpoint between 100% and the lowest measured viability); higher = less toxic; conditions: 72 h
HepG2 [9] = experiment: as above; conditions: 72 h
Calu-3 [10] = experiment: as above; conditions: 72 h
U2OS [11] = experiment: as above; conditions: 72 h
Vero E6 [12] = experiment: as above; conditions: 72 h
[13] = test system: A549-ACE2 infected with SARS-CoV-2; experiment: SARS-CoV-2 infection rate relative to DMSO; higher = more infection; conditions: 24 h
A549-ACE2 [14] = experiment: phospholipidosis EC50; higher = less potent phospholipidosis inducer
[15] = test system: A549-ACE2 infected with SARS-CoV-2; experiment: morphology score (similarity to uninfected cells); higher = more like uninfected cells; conditions: 24 h
Caco-2 [16] = experiment: drug sensitivity score (DSS) for viability; higher = more toxic; extreme values may be limits of the assay; conditions: 72 h
HepG2 [17] = experiment: as above; conditions: 72 h
Calu-3 [18] = experiment: as above; conditions: 72 h
U2OS [19] = experiment: as above; conditions: 72 h
Vero E6 [20] = experiment: as above; conditions: 72 h

OCCN1CCN(CC/C=C2/c3ccccc3Sc3ccc(C(F)(F)F)cc32)CC1 [flupentixol]
drug-induced phospholipidosis [%], A549-ACE2 [1]
Conditions | 0.3 µM | 0.833333 µM | 3.33333 µM | 6.66667 µM | 10 µM | 30 µM
24 h | 4.08 | 5.01 | 30.1 | 43.1 | 72.8 | 122
48 h | 5.09 | 0.98 | 25.8 | 36.9 | 80 | 116
72 h | 7.2 | 2.4 | 18.4 | 31.8 | 74.8 | 138

Conditions | SARS-CoV-2 infection rate [%] | cell count [%] | cell viability [%] | morphology score | phospholipidosis EC50 [nM]
A549-ACE2 [14], 24 h | – | – | – | – | 17000
A549-ACE2 [14], 48 h | – | – | – | – | 8950
A549-ACE2 [14], 72 h | – | – | – | – | 10200
Caco-2 [3], 1 nM | – | – | 90.3 | – | –
Caco-2 [3], 10 nM | – | – | 93.7 | – | –
Caco-2 [3], 100 nM | – | – | 95.2 | – | –
Caco-2 [3], 1000 nM | – | – | 87.6 | – | –
Caco-2 [3], 10000 nM | – | – | 92.4 | – | –
Calu-3 [5], 1 nM | – | – | 85.3 | – | –
Calu-3 [5], 10 nM | – | – | 87.7 | – | –
Calu-3 [5], 100 nM | – | – | 106 | – | –
Calu-3 [5], 1000 nM | – | – | 94.7 | – | –
Calu-3 [5], 10000 nM | – | – | 87 | – | –
HepG2 [4], 1 nM | – | – | 97.2 | – | –
HepG2 [4], 10 nM | – | – | 93.8 | – | –
HepG2 [4], 100 nM | – | – | 90 | – | –
HepG2 [4], 1000 nM | – | – | 96.9 | – | –
HepG2 [4], 10000 nM | – | – | 89.9 | – | –
U2OS [6], 1 nM | – | – | 99.2 | – | –
U2OS [6], 10 nM | – | – | 89.9 | – | –
U2OS [6], 100 nM | – | – | 105 | – | –
U2OS [6], 1000 nM | – | – | 94.6 | – | –
U2OS [6], 10000 nM | – | – | 92.1 | – | –
Vero E6 [7], 1 nM | – | – | 98.1 | – | –
Vero E6 [7], 10 nM | – | – | 96.9 | – | –
Vero E6 [7], 100 nM | – | – | 98.1 | – | –
Vero E6 [7], 1000 nM | – | – | 91.8 | – | –
Vero E6 [7], 10000 nM | – | – | 93.1 | – | –
[2], 0.3 µM | – | 107 | – | – | –
[2], 3 µM | – | 113 | – | – | –
[2], 10 µM | – | 124 | – | – | –
[2], 30 µM | – | 96 | – | – | –
[13], 0.3 µM | 97 | – | – | – | –
[13], 3 µM | 66 | – | – | – | –
[13], 10 µM | 17 | – | – | – | –
[13], 30 µM | 46 | – | – | – | –
[15], 0.3 µM | – | – | – | 0.2 | –
[15], 3 µM | – | – | – | 0.62 | –
[15], 10 µM | – | – | – | 0.88 | –
[15], 30 µM | – | – | – | 0.36 | –

Conditions | drug sensitivity score | relative viability EC50 [nM]
Caco-2 [8] | – | > 10000
Caco-2 [16] | 0 | –
Calu-3 [10] | – | > 10000
Calu-3 [18] | 0.6 | –
HepG2 [9] | – | > 10000
HepG2 [17] | 0 | –
U2OS [11] | – | > 10000
U2OS [19] | 0 | –
Vero E6 [12] | – | > 10000
Vero E6 [20] | 0 | –

COC(=O)C[C@](O)(CCCC(C)(C)O)C(=O)O[C@@H]1C(OC)=C[C@]23CCCN2CCc2cc4c(cc2[C@H]13)OCO4 [homoharringtonine]
Conditions | drug-induced phospholipidosis [%]
A549-ACE2 [1], 0.3 µM, 24 h | -2.95

Conditions | SARS-CoV-2 infection rate, [13] [%] | cell count, [2] [%] | cell viability, Caco-2 [3] [%] | cell viability, Calu-3 [5] [%] | cell viability, HepG2 [4] [%] | cell viability, U2OS [6] [%] | cell viability, Vero E6 [7] [%] | morphology score, [15]
1 nM | – | – | 99.3 | 93.4 | 98.4 | 104 | 92.4 | –
10 nM | – | – | 102 | 91.1 | 89.1 | 101 | 103 | –
100 nM | – | – | 61.8 | 60.1 | 29.4 | 23 | 82.1 | –
0.3 µM | 12 | 68 | – | – | – | – | – | 0.32
1000 nM | – | – | 24.7 | 27.3 | 6 | 6.6 | 12.8 | –
3 µM | 16 | 49 | – | – | – | – | – | 0.26
10 µM | 19 | 42 | – | – | – | – | – | 0.3
10000 nM | – | – | 27.9 | 22 | 1 | 0.3 | 0.5 | –
30 µM | 15 | 30 | – | – | – | – | – | 0.33

Conditions | drug sensitivity score | relative viability EC50 [nM]
Caco-2 [8] | – | 99
Caco-2 [16] | 18.6 | –
Calu-3 [10] | – | 89.7
Calu-3 [18] | 18.5 | –
HepG2 [9] | – | 49.7
HepG2 [17] | 27 | –
U2OS [11] | – | 61.6
U2OS [19] | 26.8 | –
Vero E6 [12] | – | 273
Vero E6 [20] | 18.2 | –

COc1c(C)c2c(c(O)c1C/C=C(\C)CCC(=O)OCCN1CCOCC1)C(=O)OC2 [mycophenolate-mofetil]
drug-induced phospholipidosis [%], A549-ACE2 [1]
Conditions | 0.3 µM | 0.833333 µM | 3.33333 µM | 6.66667 µM | 10 µM | 30 µM
24 h | -1.99 | -10.6 | -14.8 | -15.8 | -12.1 | -11.3
48 h | 0.05 | -8.58 | – | – | – | –
72 h | 1.31 | -1.93 | – | – | – | –

Conditions | SARS-CoV-2 infection rate, [13] [%] | cell count, [2] [%] | cell viability, Caco-2 [3] [%] | cell viability, Calu-3 [5] [%] | cell viability, HepG2 [4] [%] | cell viability, U2OS [6] [%] | cell viability, Vero E6 [7] [%] | morphology score, [15]
1 nM | – | – | 94.2 | 89.2 | 103 | 96.5 | 99 | –
10 nM | – | – | 101 | 102 | 101 | 97.9 | 98.4 | –
100 nM | – | – | 106 | 94.4 | 112 | 87.8 | 99.1 | –
0.3 µM | 97 | 102 | – | – | – | – | – | 0.22
1000 nM | – | – | 76 | 85.1 | 61.6 | 73.5 | 75.1 | –
3 µM | 78 | 80 | – | – | – | – | – | 0.12
10 µM | 81 | 94 | – | – | – | – | – | 0.22
10000 nM | – | – | 51.3 | 53.1 | 29.2 | 22.8 | 31.3 | –
30 µM | 65 | 92 | – | – | – | – | – | 0.37

Conditions | drug sensitivity score | relative viability EC50 [nM]
Caco-2 [16] | 5.6 | –
Calu-3 [18] | 4.2 | –
HepG2 [9] | – | 938
HepG2 [17] | 8.6 | –
U2OS [11] | – | 1440
U2OS [19] | 7.2 | –
Vero E6 [12] | – | 1250
Vero E6 [20] | 7.3 | –

[O-][n+]1ccccc1[S-].[O-][n+]1ccccc1[S-].[Zn+2] [pyrithione-zinc]
drug-induced phospholipidosis [%], A549-ACE2 [1]
Conditions | 24 h | 48 h | 72 h
0.3 µM | -3.98 | -0.06 | 2.15
0.833333 µM | 2.2 | – | –

Conditions | SARS-CoV-2 infection rate, [13] [%] | cell count, [2] [%] | cell viability, Caco-2 [3] [%] | cell viability, Calu-3 [5] [%] | cell viability, HepG2 [4] [%] | cell viability, U2OS [6] [%] | cell viability, Vero E6 [7] [%] | morphology score, [15]
1 nM | – | – | 91.4 | 102 | 97 | 102 | 98.8 | –
10 nM | – | – | 94.5 | 94.8 | 111 | 95.1 | 93.6 | –
100 nM | – | – | 69.8 | 94.6 | 102 | 97 | 94.4 | –
0.3 µM | 95 | 99 | – | – | – | – | – | 0.13
1000 nM | – | – | 13.4 | 40.6 | 24.6 | 10.8 | 40 | –
3 µM | 76 | 4 | – | – | – | – | – | 0.14
10000 nM | – | – | 22.9 | 18.8 | -0.1 | 1.3 | 0.1 | –

Conditions | drug sensitivity score | relative viability EC50 [nM]
Caco-2 [8] | – | 137
Caco-2 [16] | 19.5 | –
Calu-3 [10] | – | 527
Calu-3 [18] | 12 | –
HepG2 [9] | – | 640
HepG2 [17] | 14.1 | –
U2OS [11] | – | 406
U2OS [19] | 16.4 | –
Vero E6 [12] | – | 748
Vero E6 [20] | 12.8 | –
